Laboratory results as given in ChEMBL document CHEMBL5230103, “Hydroxamic acid hybrids as the potential anticancer agents: An Overview” (Eur J Med Chem, 2020).
Each block holds one compound with its values, some of them ahead of it.

Key:
Histone deacetylase 3 = Histone deacetylase 3 (Homo sapiens, UniProt O15379); test: Inhibition of HDAC3 (unknown origin)
HeLa = test: Cytotoxicity against human HeLa cells assessed as inhibition of cell growth by MTT assay; format: functional, cell-based
Jurkat E6.1 = test: Cytotoxicity against human Jurkat E6.1 cells assessed as inhibition of cell growth by MTT assay; format: functional, cell-based
[1] = Selectivity index, ratio of CC50 for cytotoxicity against HEK293 cells to IC50 for cytotoxicity against human HeLa cells; format: toxicity, cell-based; conditions: HEK293 cells and HeLa cells, read-out: Ratio CC50/IC50
[2] = Selectivity index, ratio of CC50 for cytotoxicity against HEK293 cells to IC50 for cytotoxicity against human A549 cells; format: toxicity, cell-based; conditions: HEK293 cells and A549 cells, read-out: Ratio CC50/IC50
B16-F10 = test: Cytotoxicity against mouse B16-F10 cells assessed as inhibition of cell growth by MTT assay; format: functional, cell-based
[3] = Cytotoxicity against HEK293 cells by MTT assay; format: toxicity, cell-based; conditions: human
[4] = Selectivity index, ratio of CC50 for cytotoxicity against HEK293 cells to IC50 for cytotoxicity against mouse B16-F10 cells; format: toxicity, cell-based; conditions: human, HEK293 cells and B16-F10 cells; read-out: Ratio CC50/IC50
A549 = test: Cytotoxicity against human A549 cells assessed as inhibition of cell growth by MTT assay; format: functional, cell-based
MCF7 [5] = test: Cytotoxicity against human MCF7 cells assessed as inhibition of cell growth by MTT assay; format: functional, cell-based
[6] = Selectivity index, ratio of CC50 for cytotoxicity against HEK293 cells to IC50 for cytotoxicity against human Jurkat E6.1 cells; format: toxicity, cell-based; conditions: HEK293 cells and Jurkat E6.1 cells, read-out: Ratio CC50/IC50
[7] = Selectivity index, ratio of CC50 for cytotoxicity against HEK293 cells to IC50 for cytotoxicity against human MCF7 cells; format: toxicity, cell-based; conditions: HEK293 cells and MCF7 cells, read-out: Ratio CC50/IC50
[8] = molecular target: Histone deacetylase 8 (Homo sapiens) (UniProt Q9BY41); test: Inhibition of HDAC8 (unknown origin) at 25 nM relative to control
U2OS = test: cells; format: functional, cell-based; conditions: Homo sapiens, 72 h
Description: Cytotoxicity against human U2OS cells assessed as inhibition of cell growth measured after 72 hrs by MTT assay

Plasmodium berghei = test: Antimalarial activity against hepatic stage of Plasmodium berghei infected in human Huh-7 cells preincubated for 1 hr followed by parasite addition and measured after 48 hrs by bioluminescence assay; format: functional, organism-based
MCF7 [9] = test: cells; format: functional, cell-based; conditions: Homo sapiens, MCF7, 72 h
Description: Cytotoxicity against human MCF7 cells assessed as inhibition of cell growth measured after 72 hrs by MTT assay

HepG2 = test: Cytotoxicity against human HepG2 cells assessed as inhibition of cell growth measured after 72 hrs by MTT assay; format: functional, cell-based; conditions: HepG2, 72 h
Plasmodium falciparum [10] = test: Antimalarial activity against erythrocytic stage of chloroquine susceptible Plasmodium falcipuram 3D7 measured after 3 days by HRP2-ELISA; format: functional, organism-based; conditions: 3D7, 72 h
Plasmodium falciparum [11] = test: Antimalarial activity against erythrocytic stage of chloroquine resistant Plasmodium falcipuram Dd2 measured after 3 days by HRP2-ELISA; format: functional, organism-based; conditions: Dd2, 72 h
518A2 [12] = test: Cytotoxicity against human 518A2 cells assessed as inhibition of cell growth by MTT assay; format: functional, cell-based
[13] = Selectivity index, ratio of IC50 for cytotoxicity against human HDFa cells to IC50 for cytotoxicity against human 518A2 cells; format: toxicity, cell-based; conditions: HDFa cells and 518A2 cells, pooled result: one value given for 6 cell lines, strains, targets or settings, read-out: Ratio IC50
518A2 [14] = test: Potency index, ratio of vorinostat IC50 to test compound IC50 for cytotoxicity against human 518A2 cells; format: functional
HT-29 [15] = test: Cytotoxicity against human HT-29 cells assessed as inhibition of cell growth by MTT assay; format: functional, cell-based
DLD-1 [16] = test: Cytotoxicity against human DLD-1 cells assessed as inhibition of cell growth by SRB assay; format: functional, cell-based
MCF7 [17] = test: Potency index, ratio of vorinostat IC50 to test compound IC50 for cytotoxicity against human MCF7 cells; format: functional
HT-29 [18] = test: Potency index, ratio of vorinostat IC50 to test compound IC50 for cytotoxicity against human HT-29 cells; format: functional
EA.hy 926 = test: Potency index, ratio of vorinostat IC50 to test compound IC50 for cytotoxicity against human EA.hy 926 cells; format: functional
DLD-1 [19] = test: Potency index, ratio of vorinostat IC50 to test compound IC50 for cytotoxicity against human DLD-1 cells; format: functional
KB-V1 [20] = test: Potency index, ratio of vorinostat IC50 to test compound IC50 for cytotoxicity against human KB-V1 cells; format: functional
[21] = Cytotoxicity against human HDFa cells assessed as inhibition of cell proliferation by MTT assay; format: toxicity, cell-based
KB-V1 [22] = test: Cytotoxicity against human KB-V1 cells assessed as inhibition of cell growth by MTT assay; format: functional, cell-based
Kasumi 1 = test: Cytotoxicity against human Kasumi 1 cells assessed as inhibition of cell growth by MTT assay; format: functional, cell-based
NB-4 = test: Cytotoxicity against human NB-4 cells assessed as inhibition of cell growth by MTT assay; format: functional, cell-based
T47D = test: Cytotoxicity against human T47D cells assessed as inhibition of cell growth by MTS assay; format: functional, cell-based
MCF7 [23] = test: Cytotoxicity against human MCF7 cells assessed as inhibition of cell growth by MTS assay; format: functional, cell-based
MDA-MB-231 [24] = test: animal or person; format: functional, Homo sapiens; conditions: Mus musculus, route po, read-out: TGI
Description: Antitumor activity against human MDA-MB-231 cells xenografted in mouse assessed as tumor growth inhibition at 25 mg/kg, po relative to control

MDA-MB-231 [25] = test: Cytotoxicity against human MDA-MB-231 cells assessed as inhibition of cell growth by MTS assay; format: functional, cell-based
[26] = Half life in CD1 mouse at 2 mg/kg, iv; format: ADME, organism-based; conditions: in vivo
[27] = AUCinfinity in CD1 mouse at 2 mg/kg, iv; format: ADME, organism-based; parameters: dose 2 mg/kg, route iv; conditions: in vivo
[28] = Cmax in CD1 mouse at 2 mg/kg, iv; format: ADME, organism-based; parameters: dose 2 mg/kg, route iv; conditions: in vivo
[29] = Clearance in CD1 mouse at 2 mg/kg, iv; format: ADME, organism-based; conditions: in vivo

Chain of Histone deacetylase 3 (O15379 whole entry): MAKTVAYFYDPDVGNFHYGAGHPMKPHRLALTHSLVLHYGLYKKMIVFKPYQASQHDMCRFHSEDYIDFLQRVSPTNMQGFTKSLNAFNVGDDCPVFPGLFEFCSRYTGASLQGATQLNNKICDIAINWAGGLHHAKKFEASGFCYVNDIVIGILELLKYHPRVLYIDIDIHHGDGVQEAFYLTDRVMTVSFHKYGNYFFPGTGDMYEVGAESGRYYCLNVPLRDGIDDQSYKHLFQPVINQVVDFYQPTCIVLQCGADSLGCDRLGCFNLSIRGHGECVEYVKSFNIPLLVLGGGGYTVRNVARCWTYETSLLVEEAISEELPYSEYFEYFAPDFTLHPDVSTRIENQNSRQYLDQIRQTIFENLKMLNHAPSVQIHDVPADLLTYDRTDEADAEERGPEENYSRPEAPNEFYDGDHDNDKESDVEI
Chain of Histone deacetylase 8 (Homo sapiens) (Q9BY41 whole entry): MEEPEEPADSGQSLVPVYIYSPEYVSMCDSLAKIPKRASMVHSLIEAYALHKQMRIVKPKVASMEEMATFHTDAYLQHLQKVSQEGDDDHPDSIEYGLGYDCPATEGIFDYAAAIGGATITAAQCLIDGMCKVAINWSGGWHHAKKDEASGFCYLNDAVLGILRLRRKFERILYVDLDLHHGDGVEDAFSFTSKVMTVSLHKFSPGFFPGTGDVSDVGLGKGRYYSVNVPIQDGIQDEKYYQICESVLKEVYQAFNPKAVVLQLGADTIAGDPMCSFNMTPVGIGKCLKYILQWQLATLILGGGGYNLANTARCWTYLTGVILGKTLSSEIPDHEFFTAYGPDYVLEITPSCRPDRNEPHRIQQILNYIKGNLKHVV

SMILES: O=C(CCCN1CCN(C(=O)Nc2cccc3ncccc23)CC1)NO
IC50 (Histone deacetylase 3): 4.42 nM
IC50 (HeLa): 7190 nM
IC50 (Jurkat E6.1): 7190 nM
selectivity ratio [1]: > 8.7
selectivity ratio [2]: > 8.7
IC50 (B16-F10): 7190 nM
CC50 [3]: > 100000 nM
selectivity ratio [4]: > 8.7
IC50 (A549): 7190 nM
IC50 (MCF7 [5]): 7190 nM
selectivity ratio [6]: > 8.7
selectivity ratio [7]: > 8.7

inhibition [8]: 75%
SMILES: Nc1ccnc(NC(=O)[C@@H](N)CCCCC(=O)NO)n1
IC50 (Jurkat E6.1): 20000 nM

SMILES: COc1cc(NC(C)CCCCCNC(=O)CCC(=O)NO)c2ncccc2c1 (stereo not drawn)
IC50 (U2OS): 3300 nM
IC50 (Plasmodium berghei): 300 nM
IC50 (MCF7 [9]): 1600 nM
IC50 (HepG2): 1600 nM
IC50 (Plasmodium falciparum [10]): 300 nM
IC50 (Plasmodium falciparum [11]): 300 nM

SMILES: COc1ccc(-c2ocnc2-c2cc(Br)c(OC)c(OC)c2)cc1OCCCC(=O)NO
IC50 (518A2 [12]): 18 nM
selectivity ratio [13]: 8.5
Ratio IC50 (518A2 [14]): 1.2
IC50 (HT-29 [15]): 18 nM
IC50 (DLD-1 [16]): 18 nM
Ratio IC50 (MCF7 [17]): 1.2
Ratio IC50 (HT-29 [18]): 1.2
Ratio IC50 (EA.hy 926): 1.2
Ratio IC50 (DLD-1 [19]): 1.2
Ratio IC50 (KB-V1 [20]): 1.2
IC50 (MCF7 [5]): 18 nM
IC50 [21]: 23900 nM
IC50 (KB-V1 [22]): 18 nM

SMILES: Cn1c(CCCCCCC(=O)NO)nc2cc(N(CCCl)CCCl)ccc21 [TINOSTAMUSTINE]
IC50 (Kasumi 1): 820 nM
IC50 (NB-4): 900 nM

SMILES: CCCCc1nc2cc(/C=C/C(=O)NO)ccc2n1CCN(CC)CC [PRACINOSTAT]
IC50 (T47D): 5340 nM
IC50 (MCF7 [23]): 5340 nM
inhibition in vivo at 25 mg/kg (MDA-MB-231 [24]): 50%
IC50 (MDA-MB-231 [25]): 5340 nM

half-life [26]: 1.65 h
AUC(0-inf) [27]: 1090 ng·h/mL
Cmax [28]: 2350 ng/mL
clearance [29]: 30.7 mL/min/kg
SMILES: O=C(NO)C(c1ccccc1)c1c(-c2ccc3ccccc3c2)[nH]c2ccccc12 (stereo not drawn)
